# Assay results: US6737383B1, “Herbicidal oxadiazolidines” (priority 1999, dated 2004)
# Key:
# soybean = assay: Test B pre/postemergence soybean; format: in vivo, Glycine max
# How it was run: (§1)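 Herbicidal effect was estimated by eye on a ten-point control scale after plants spent twelve to sixteen days in a greenhouse following soil or foliar treatment. Foliar sprays targeted plants at one to four leaves; all doses were formulated in a non-phytotoxic solvent with surfactant.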
# bedstraw = assay: Test B pre/postemergence bedstraw; format: in vivo, Galium aparine; conditions: Postemergence, Rate 250 g/ha; scale of 0 to 10, 0 is no effect, 10 is complete control
# How it was run: as §1
# sugar beet = assay: Test B pre/postemergence sugar beet; format: in vivo, Beta vulgaris
# How it was run: as §1
# cocklebur = assay: Test B pre/postemergence cocklebur; format: in vivo, Xanthium strumarium
# How it was run: as §1
# giant foxtail = assay: Test B pre/postemergence giant foxtail; format: in vivo, Setaria faberii
# How it was run: as §1
# corn = assay: Test B pre/postemergence corn; format: in vivo, Zea mays
# How it was run: as §1
# velvetleaf = assay: Test B pre/postemergence velvetleaf; format: in vivo, Abutilon theophrasti
# How it was run: as §1
# surinam grass = assay: Test B pre/postemergence surinam grass; format: in vivo, Brachiaria decumbens
# How it was run: as §1
# smallflower flatsedge = assay: Test B flood test smallflower flatsedge; format: in vivo, Cyperus difformis
# How it was run: (§2)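 Flood test on plants grown to the 2-leaf stage; treated plants kept in greenhouse twelve to sixteen days, then visually rated against controls on a 0 (no effect) to 10 (complete control) scale.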
# purple nutsedge = assay: Test B pre/postemergence purple nutsedge; format: in vivo, Cyperus rotundus
# How it was run: as §1
# wheat = assay: Test B pre/postemergence wheat; format: in vivo, Triticum aestivum
# How it was run: as §1
# duck salad = assay: Test B flood test duck salad; format: in vivo, Heteranthera limosa
# How it was run: as §2
# rape = assay: Test B pre/postemergence rape; format: in vivo, Brassica napus
# How it was run: as §1
# wild oat = assay: Test B pre/postemergence wild oat; format: in vivo, Avena fatua
# How it was run: as §1
# rice = assay: Test B flood test rice; format: in vivo, Oryza sativa
# How it was run: as §2
# pigweed = assay: Test B pre/postemergence pigweed; format: in vivo, Amaranthus retroflexus
# How it was run: as §1
# [1] = Postemergence, Rate 62 g/ha, scale 0 to 10, 0 is no effect, 10 is complete control
# [2] = Postemergence, Rate 125 g/ha, scale of 0 to 10 where 0 is no effect and 10 is complete control
# [3] = Preemergence, Rate 62 g/ha, scale of 0 to 10 where 0 is no effect and 10 is complete control
# [4] = Preemergence, Rate 125 g/ha, scale of 0 to 10 where 0 is no effect and 10 is complete control
# [5] = Preemergence, Rate 250 g/ha, scale 0 to 10 (0 no effect, 10 complete control)
# [6] = Preemergence, Rate 500 g/ha, scale of 0 to 10 where 0 is no effect and 10 is complete control
# [7] = Rate 500 g/ha, Postemergence, scale 0 to 10, 0 is no effect, 10 is complete control
# [8] = Postemergence, Rate 250 g/ha, scale of 0 to 10, 0 is no effect, 10 is complete control
# [9] = Rate 62 g/ha, flood test species, Pre-emergence, visual evaluation after twelve to sixteen days
# [10] = Rate 125 g/ha, under heading Pre-emergence, flood test species, visual evaluation after twelve to sixteen days
# [11] = Rate 250 g/ha, Pre-emergence (flood test species), scale 0 to 10, 0 is no effect, 10 is complete control
# [12] = Rate 500 g/ha, Pre-emergence section of Table B, 0 to 10 scale (0 no effect, 10 complete control)
structure (smiles),measurement,setting,value
CC[C@@H](C)n1c(=O)on(C(=O)N(c2ccc(Cl)cc2)C(C)C)c1=O [Compound 665],"Plant response rating, Soybean",soybean; [1],2
same,Soybean plant response rating,soybean; [2],2
same,Soybean plant response rating,soybean; [3],0
same,Soybean plant response rating,soybean; [4],0
same,"Plant response rating, Soybean",soybean; [5],0
same,"Plant response rating, Soybean",soybean; [6],2
same,Bedstraw plant response rating,bedstraw,0
same,"Plant response rating, Sugarbeets",sugar beet; [1],0
same,Sugarbeets plant response rating,sugar beet; [2],0
same,Sugarbeets plant response rating,sugar beet; [3],0
same,Sugarbeets plant response rating,sugar beet; [4],3
same,"Plant response rating, Sugarbeets",sugar beet; [5],6
same,"Plant response rating, Sugarbeets",sugar beet; [6],7
same,Sugarbeets plant response rating,sugar beet; [7],4
same,"Plant response rating, Cocklebur",cocklebur; [1],0
same,Cocklebur plant response rating,cocklebur; [2],0
same,Cocklebur plant response rating,cocklebur; [8],0
same,Cocklebur plant response rating,cocklebur; [3],0
same,Cocklebur plant response rating,cocklebur; [4],0
same,"Plant response rating, Cocklebur",cocklebur; [5],0
same,"Plant response rating, Cocklebur",cocklebur; [6],0
same,Cocklebur plant response rating,cocklebur; [7],2
same,"Plant response rating, Giant foxtail",giant foxtail; [1],2
same,Giant foxtail plant response rating,giant foxtail; [2],4
same,Giant foxtail plant response rating,giant foxtail; [8],8
same,Giant foxtail plant response rating,giant foxtail; [3],9
same,Giant foxtail plant response rating,giant foxtail; [4],10
same,"Plant response rating, Giant foxtail",giant foxtail; [5],10
same,"Plant response rating, Giant foxtail",giant foxtail; [6],10
same,Giant foxtail plant response rating,giant foxtail; [7],9
same,"Plant response rating, Corn",corn; [1],0
same,Corn plant response rating,corn; [2],0
same,Corn plant response rating,corn; [8],0
same,Corn plant response rating,corn; [3],0
same,Corn plant response rating,corn; [4],0
same,"Plant response rating, Corn",corn; [5],0
same,"Plant response rating, Corn",corn; [6],3
same,Corn plant response rating,corn; [7],3
same,"Plant response rating, Velvetleaf",velvetleaf; [1],0
same,Velvetleaf plant response rating,velvetleaf; [2],2
same,Velvetleaf plant response rating,velvetleaf; [3],0
same,Velvetleaf plant response rating,velvetleaf; [4],0
same,"Plant response rating, Velvetleaf",velvetleaf; [5],4
same,"Plant response rating, Velvetleaf",velvetleaf; [6],7
same,Velvetleaf plant response rating,velvetleaf; [7],7
same,"Plant response rating, B. signalgrass",surinam grass; [1],0
same,"Plant response rating, B. signalgrass",surinam grass; [2],0
same,B. signalgrass plant response rating,surinam grass; [8],1
same,B. signalgrass plant response rating,surinam grass; [3],1
same,B. signalgrass plant response rating,surinam grass; [4],4
same,"Plant response rating, B. signalgrass",surinam grass; [5],8
same,"Plant response rating, B. signalgrass",surinam grass; [6],8
same,B. signalgrass plant response rating,surinam grass; [7],5
same,"Plant response rating, S. Flatsedge (0 to 10 scale, 0 is no effect, 10 is complete control)",smallflower flatsedge; [9],0
same,"S. Flatsedge plant response rating (0 to 10 scale, 0 is no effect, 10 is complete control)",smallflower flatsedge; [10],0
same,S. Flatsedge plant response rating,smallflower flatsedge; [11],0
same,S. Flatsedge plant response rating,smallflower flatsedge; [12],0
same,Nutsedge plant response rating,purple nutsedge; [2],0
same,Nutsedge plant response rating,purple nutsedge; [3],0
same,Nutsedge plant response rating,purple nutsedge; [4],0
same,"Plant response rating, Nutsedge",purple nutsedge; [5],0
same,Nutsedge plant response rating,purple nutsedge; [7],0
same,"Plant response rating, Wheat",wheat; [1],0
same,Wheat plant response rating,wheat; [2],0
same,Wheat plant response rating,wheat; [3],0
same,Wheat plant response rating,wheat; [4],3
same,"Plant response rating, Wheat",wheat; [5],4
same,"Plant response rating, Wheat",wheat; [6],4
same,Wheat plant response rating,wheat; [7],4
same,"Plant response rating, Ducksalad (0 to 10 scale, 0 is no effect, 10 is complete control)",duck salad; [9],0
same,"Ducksalad plant response rating (0 to 10 scale, 0 is no effect, 10 is complete control)",duck salad; [10],0
same,Ducksalad plant response rating,duck salad; [11],0
same,Ducksalad plant response rating,duck salad; [12],0
same,"Plant response rating, Rape",rape; [1],0
same,Rape plant response rating,rape; [2],0
same,Rape plant response rating,rape; [3],4
same,Rape plant response rating,rape; [4],6
same,"Plant response rating, Rape",rape; [5],8
same,"Plant response rating, Rape",rape; [6],9
same,Rape plant response rating,rape; [7],4
same,"Plant response rating, Wild oats",wild oat; [1],0
same,Wild oats plant response rating,wild oat; [2],0
same,Wild oats plant response rating,wild oat; [3],3
same,Wild oats plant response rating,wild oat; [4],5
same,"Plant response rating, Wild oats",wild oat; [5],7
same,"Plant response rating, Wild oats",wild oat; [6],8
same,Wild oats plant response rating,wild oat; [7],5
same,"Plant response rating, Rice (0 to 10 scale, 0 is no effect, 10 is complete control)",rice; [9],0
same,"Rice plant response rating (0 to 10 scale, 0 is no effect, 10 is complete control)",rice; [10],0
same,Rice plant response rating,rice; [11],0
same,Rice plant response rating,rice; [12],0
same,"Plant response rating, Redroot pigweed",pigweed; [1],3
same,Redroot pigweed plant response rating,pigweed; [2],3
same,Redroot pigweed plant response rating,pigweed; [3],7
same,Redroot pigweed plant response rating,pigweed; [4],8
same,"Plant response rating, Redroot pigweed",pigweed; [5],9
same,"Plant response rating, Redroot pigweed",pigweed; [6],10
same,Redroot pigweed plant response rating,pigweed; [7],7
